Target: recombinant Human Phosphodiesterase B2 (PDE4B2) (Homo sapiens, UniProt Q07343)
Test: Human Phosphodiesterase B2 Radiometric Assay (yttrium silicate SPA beads, [3H]cyclic AMP)
Format: biochemical
Settings: recombinant human PDE4B2, radiometric SPA assay, 8 nM [3H]cyclic AMP; read-out: PDE4B2 pIC50 (converted)
How it was run: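 Compounds were preincubated 30 min at 30 °C with 0.1 mg/mL PDE4B2 in 50 mM HEPES pH 7.5, 8.3 mM MgCl2, 1.7 mM EGTA, 0.01% Brij 35. Then 8 nM [3H]cAMP was added for 20 min, stopped with yttrium silicate SPA beads plus 18 mM ZnSO4 capturing product 5′AMP; pIC50 by curve fitting.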

recombinant Human Phosphodiesterase B2 (PDE4B2), sequence (Q07343 1-564 isoform Q07343-2): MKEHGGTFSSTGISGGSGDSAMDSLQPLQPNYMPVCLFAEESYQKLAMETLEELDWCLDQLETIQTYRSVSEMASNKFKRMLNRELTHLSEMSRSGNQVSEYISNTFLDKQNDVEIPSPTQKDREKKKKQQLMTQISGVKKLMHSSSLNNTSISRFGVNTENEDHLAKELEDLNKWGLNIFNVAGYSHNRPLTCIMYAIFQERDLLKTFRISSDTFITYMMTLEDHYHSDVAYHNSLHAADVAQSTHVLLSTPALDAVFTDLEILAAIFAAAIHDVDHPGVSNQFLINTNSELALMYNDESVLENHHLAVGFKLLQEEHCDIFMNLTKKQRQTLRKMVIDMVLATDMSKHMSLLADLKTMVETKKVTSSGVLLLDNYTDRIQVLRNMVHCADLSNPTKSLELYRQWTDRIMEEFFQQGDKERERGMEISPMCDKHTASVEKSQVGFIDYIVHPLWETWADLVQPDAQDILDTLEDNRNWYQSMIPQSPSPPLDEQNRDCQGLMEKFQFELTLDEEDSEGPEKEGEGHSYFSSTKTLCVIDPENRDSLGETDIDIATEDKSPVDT

SMILES | IC50
COc1ccc(CN[C@H]2CC[C@@H](n3c(=O)c4cc(F)cnc4n(-c4cccc(-c5ccc(CN6CCN(C(C)C)CC6)cc5)c4)c3=O)CC2)cc1Cl [Example 260, 3-{cis-4-[(3-chloro-4-methoxybenzyl)amino]cyclohexyl}-6-fluoro-1-{4′-[(4-isopropyl-piperazin-1-yl)methyl]biphenyl-3-yl}pyrido[2,3-d]pyrimidine-2,4(1H,3H)-dione] | 0.501 nM
CC(C)N1CCN(Cc2ccc(-c3cccc(-n4c(=O)n([C@H]5CC[C@@H](NCc6c(C(F)(F)F)nn(C)c6Cl)CC5)c(=O)c5cc(F)cnc54)c3)cc2)CC1 [Example 262, 3-[cis-4-({[5-chloro-1-methyl-3-(trifluoromethyl)-1H-pyrazol-4-yl]methyl}amino)cyclohexyl]-6-fluoro-1-{4′-[(4-isopropyl-piperazin-1-yl}methyl]biphenyl-3-yl}pyrido[2,3-d]pyrimidine-2,4(1H,3H)-dione] | 0.794 nM
CC(C)N1CCN(Cc2ccc(-c3cccc(-n4c(=O)n([C@H]5CC[C@@H](NCc6cnn(C)c6-c6ccccc6)CC5)c(=O)c5cc(F)cnc54)c3)cc2)CC1 [Example 264, 6-fluoro-1-{4′-[(4-isopropyl-piperazin-1-yl)methyl]biphenyl-3-yl}-3-(cis-4-{[(1-methyl-5-phenyl-1H-pyrazol-4-yl)methyl]amino}cyclohexyl)pyrido[2,3-d] pyrimidine-2,4(1H,3H)-dione] | 2.51 nM
Cn1ncc(CN[C@H]2CC[C@@H](n3c(=O)c4cc(F)cnc4n(-c4cccc(-c5ccc(CN6CCCOCC6)cc5)c4)c3=O)CC2)c1-c1ccccc1 [Example 265, 6-fluoro-3-(cis-4-{[(1-methyl-5-phenyl-1H-pyrazol-4-yl)methyl]amino}cyclohexyl)-1-[4′-(1,4-oxazepan-4-ylmethyl)biphenyl-3-yl]pyrido[2,3-d]pyrimidine-2,4(1H,3H)-dione] | 2 nM
CC(=O)n1cc(CN[C@H]2CC[C@@H](n3c(=O)c4cc(F)cnc4n(-c4cccc(-c5ccc(CN6CCCOCC6)cc5)c4)c3=O)CC2)c2ccccc21 [Example 266, 3-(cis-4-{[(1-acetyl-1H-indol-3-yl)methyl]amino}cyclohexyl)-6-fluoro-1-[4′-(1,4-oxazepan-4-ylmethyl)biphenyl-3-yl] pyrido[2,3-d]pyrimidine-2,4(1H,3H)-dione] | 1 nM
C[C@@H]1CN(Cc2ccc(-c3cccc(-n4c(=O)n([C@H]5CC[C@@H](NC(=O)c6cn7cc(F)ccc7n6)CC5)c(=O)c5cc(F)cnc54)c3)cc2)C[C@H](C)N1 [Example 270, N-{cis-4-[1-(4′-{[(3R,5S)-3,5-Dimethylpiperazin-1-yl]methyl}biphenyl-3-yl)-6-fluoro-2,4-dioxo-1,4-dihydropyrido[2,3-d]pyrimidin-3(2H)-yl]cyclohexyl}-6-fluoroimidazo[1,2-a]pyridine-2-carboxamide] | 0.00631 nM
CN(C)Cc1ccc(-c2cccc(-n3c(=O)n([C@H]4CC[C@@H](NC(=O)c5ccccc5OCCO)CC4)c(=O)c4cc(F)cnc43)c2)cc1 [Example 272, N-{cis-4-[1-{4′-[(Dimethylamino)methyl]biphenyl-3-yl}-6-fluoro-2,4-dioxo-1,4-dihydropyrido[2,3-d]pyrimidin-3(2H)-yl]cyclohexyl}-2-(2-hydroxyethoxy)benzamide] | 0.794 nM
O=C(N[C@H]1CC[C@@H](n2c(=O)c3cc(F)cnc3n(-c3cccc(-c4ccc(CN5CCNCC5)cc4O)c3)c2=O)CC1)c1cn2cc(F)ccc2n1 [Example 274, 6-Fluoro-N-{cis-4-[6-fluoro-1-[2′-hydroxy-4′-(piperazin-1-ylmethyl)biphenyl-3-yl]-2,4-dioxo-1,4-dihydropyrido[2,3-d]pyrimidin-3(2H)-yl]cyclohexyl}imidazo[1,2-a]pyridine-2-carboxamide] | 0.0631 nM
CCCNC1(C(=O)N[C@H]2CC[C@@H](n3c(=O)c4cc(F)cnc4n(-c4cccc(-c5ccccc5CN5CCOCC5)c4)c3=O)CC2)CCCC1 [Example 275, N-{cis-4-[6-Fluoro-1-[2′-(morpholin-4-ylmethyl)biphenyl-3-yl]-2,4-dioxo-1,4-dihydropyrido[2,3-d]pyrimidin-3(2H)-yl]cyclohexyl}-1-(propylamino)cyclopentanecarboxamide] | 3.98 nM
CN(C)Cc1cc(O)ccc1-c1cccc(-n2c(=O)n([C@H]3CC[C@@H](NCc4cn5cc(F)ccc5n4)CC3)c(=O)c3cc(F)cnc32)c1 [Example 277, 1-{2′-[(dimethylamino)methyl]-4′-hydroxybiphenyl-3-yl}-6-fluoro-3-(cis-4-{[(6-fluoroimidazo[1,2-a]pyridin-2-yl)methyl]amino}cyclohexyl)pyrido[2,3-d]pyrimidine-2,4(1H,3H)-dione] | 0.794 nM

Second part, the compound after the results:

IC50 | SMILES
0.631 nM | Cc1ccc(CN[C@H]2CC[C@@H](n3c(=O)c4cc(F)cnc4n(-c4cccc(-c5ccc(CN6CCN(C(C)C)CC6)cc5)c4)c3=O)CC2)s1 [Example 261, 6-fluoro-1-{4′-[(4-isopropylpiperazin-1-yl)methyl]biphenyl-3-yl}-3-(cis-4-{[(5-methyl-2-thienyl)methyl]amino}cyclohexyl)pyrido[2,3-d] pyrimidine-2,4(1H,3H)-dione]
1.58 nM | Cc1c(CN[C@H]2CC[C@@H](n3c(=O)c4cc(F)cnc4n(-c4cccc(-c5ccc(CN6CCN(C(C)C)CC6)cc5)c4)c3=O)CC2)ncn1Cc1ccccc1 [Example 263, 3-(cis-4-{[(1-benzyl-5-methyl-1H-imidazol-4-yl)methyl]amino}cyclohexyl)-6-fluoro-1-{4′-[(4-isopropylpiperazin-1-yl)methyl]biphenyl-3-yl}pyrido[2,3-d] pyrimidine-2,4(1H,3H)-dione]
1.58 nM | COc1ccc(O)c(CN[C@H]2CC[C@@H](n3c(=O)c4cc(F)cnc4n(-c4cccc(-c5ccc(CN6CCCOCC6)cc5)c4)c3=O)CC2)c1 [Example 267, 6-fluoro-3-{cis-4-[(2-hydroxy-5-methoxybenzyl)amino]cyclohexyl}-1-[4′-(1,4-oxazepan-4-ylmethyl)biphenyl-3-yl]pyrido[2,3-d] pyrimidine-2,4(1H,3H)-dione]
0.0126 nM | O=C(N[C@H]1CC[C@@H](n2c(=O)c3cc(F)cnc3n(-c3cccc(-c4ccc(CNC5CCNCC5)cc4)c3)c2=O)CC1)c1cn2cc(F)ccc2n1 [Example 268, 6-Fluoro-N-{cis-4-[6-fluoro-2,4-dioxo-1-{4′-[(piperidin-4-ylamino)methyl]biphenyl-3-yl}-1,4-dihydropyrido[2,3-d]pyrimidin-3(2H)-yl]cyclohexyl}imidazo[1,2-a]pyridine-2-carboxamide]
0.02 nM | CN1CCN(Cc2ccc(-c3cccc(-n4c(=O)n([C@H]5CC[C@@H](NC(=O)c6cn7cc(F)ccc7n6)CC5)c(=O)c5cc(F)cnc54)c3)cc2)CC1 [Example 269, 6-Fluoro-N-{cis-4-[6-fluoro-1-{4′-[(4-methylpiperazin-1-yl)methyl]biphenyl-3-yl}-2,4-dioxo-1,4-dihydropyrido[2,3-d]pyrimidin-3(2H)-yl]cyclohexyl}imidazo[1,2-a]pyridine-2-carboxamide]
0.00398 nM | CN(C)Cc1cc(F)ccc1-c1cccc(-n2c(=O)n([C@H]3CC[C@@H](NC(=O)c4cn5cc(F)ccc5n4)CC3)c(=O)c3cc(F)cnc32)c1 [Example 273, N-{cis-4-[1-{2′-[(Dimethylamino)methyl]-4′-fluorobiphenyl-3-yl}-6-fluoro-2,4-dioxo-1,4-dihydropyrido[2,3-d]pyrimidin-3(2H)-yl]cyclohexyl}-6-fluoroimidazo[1,2-a]pyridine-2-carboxamide]

From patent US20100204203A1, “Chemical Compounds 637: Pyridopyrimidinediones as PDE4 Inhibitors” (priority 2007, published 2010)
